# Publication PMC6658998, “Pharmacological characterization of the seven human NOX isoforms and their inhibitors” (Redox Biology, 2019)
# How the values were obtained:
# [1] = molecular target: T1, NOX2 (Homo sapiens, UniProt P04839); experiment: NOX2 activity in purified PLB-985 membranes (WST-1, CBA); type: biochemical
# T1 sequence (P04839 2-570 limits assumed): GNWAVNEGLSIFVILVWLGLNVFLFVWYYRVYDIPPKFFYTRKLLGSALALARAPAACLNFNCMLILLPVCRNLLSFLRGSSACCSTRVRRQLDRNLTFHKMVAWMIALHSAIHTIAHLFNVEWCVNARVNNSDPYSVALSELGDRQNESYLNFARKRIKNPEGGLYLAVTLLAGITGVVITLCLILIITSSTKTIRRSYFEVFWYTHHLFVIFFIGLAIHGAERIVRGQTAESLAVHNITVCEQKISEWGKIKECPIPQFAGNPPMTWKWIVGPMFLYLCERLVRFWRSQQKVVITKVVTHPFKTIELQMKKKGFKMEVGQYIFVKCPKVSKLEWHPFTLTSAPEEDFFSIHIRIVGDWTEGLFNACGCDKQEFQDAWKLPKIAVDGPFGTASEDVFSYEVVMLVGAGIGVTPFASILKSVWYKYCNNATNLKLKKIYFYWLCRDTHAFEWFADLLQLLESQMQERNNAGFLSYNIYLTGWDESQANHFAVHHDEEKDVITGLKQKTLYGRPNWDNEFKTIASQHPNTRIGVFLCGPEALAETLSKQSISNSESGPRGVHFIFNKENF
# Description: PLB-985 (40 dishes 150 cm^2) were grown in suspension and differentiated by addition of 1.25% DMSO for 72 h. HEK293 cells expressing NOX5 (40 dishes 150 cm^2) were amplified until confluence and detached using trypsin-EDTA for 5 min followed by addition of 2 vol of pre-warmed complete growth media to inactivate trypsin. Collected cells were centrifuged at 4000 ×g for 10 min. Cells were washed with PBS and centrifuged at 1500 ×g for 10 min. The supernatant was discarded and the pellet was placed at −80 °C for at least 30 min. […] Samples were sonicated two times for 25 s (level 7, Branson Sonifier 250). Cell debris were removed by centrifugation at 800 ×g for 10 min at 4 °C. […] Protein concentration was determined with Bradford reagent using BSA as a standard. […]
# NOX2 containing membranes were used at 10 μg/mL of proteins in a reaction mixture containing 90 nM recombinant RacQ61L, 45 nM recombinant p67Np47 N chimeric protein (consisting of a fusion of the N-termini of human p67phox [residues 1–210] and p47phox [residues 1–286]), 90 μM SDS, 1 μM FAD-Na2 and 1 mM WST-1 or 800 μM CBA in PBS. The reaction mixture was dispensed in 96-well plates (transparent for WST-1 absorbance, black for CBA fluorescence) at 80 μL/well and the plate was incubated for 5 min at 37 °C. […]
# [2] = molecular target: NOX1; set-up: method as in PMID 27273790; settings: documented values, measured using Amplex Red/HRP assay; cited from earlier work
# [3] = molecular target: NOX4; set-up: method as in PMID 27273790; settings: documented values, measured using Amplex Red/HRP assay; cited from earlier work
# [4] = molecular target: NOX5; set-up: method as in PMID 27273790; settings: documented values, measured using Amplex Red/HRP assay; cited from earlier work
# [5] = molecular target: NOX2; set-up: method as in PMID 27273790; settings: documented values, measured using Amplex Red/HRP assay; cited from earlier work
# [6] = molecular target: NOX4 (Homo sapiens, UniProt Q9NPH5); settings: NOX4 T-rex cells, tetracycline 24 h, antimycin A 1 μM, compound 10 μM
# NOX4 (Homo sapiens, UniProt Q9NPH5), sequence (Q9NPH5 whole entry, canonical isoform): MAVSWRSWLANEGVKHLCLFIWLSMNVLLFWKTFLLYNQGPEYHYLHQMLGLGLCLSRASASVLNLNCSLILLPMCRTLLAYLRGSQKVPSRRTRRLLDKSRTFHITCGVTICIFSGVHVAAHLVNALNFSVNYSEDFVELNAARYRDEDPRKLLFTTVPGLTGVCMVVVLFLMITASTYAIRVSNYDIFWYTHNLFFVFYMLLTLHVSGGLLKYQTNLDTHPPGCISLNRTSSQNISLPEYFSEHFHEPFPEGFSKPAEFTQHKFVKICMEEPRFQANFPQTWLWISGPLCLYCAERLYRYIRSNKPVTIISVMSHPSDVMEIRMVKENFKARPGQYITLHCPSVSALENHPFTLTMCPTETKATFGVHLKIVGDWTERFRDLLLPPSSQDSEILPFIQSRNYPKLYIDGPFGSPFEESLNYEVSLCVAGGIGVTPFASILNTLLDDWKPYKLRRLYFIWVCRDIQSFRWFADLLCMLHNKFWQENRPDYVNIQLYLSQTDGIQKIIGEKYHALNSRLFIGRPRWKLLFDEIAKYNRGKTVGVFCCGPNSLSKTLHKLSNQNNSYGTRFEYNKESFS
# NOX4 (Homo sapiens, UniProt Q9NPH5), sequence (P13498 whole entry partner, canonical isoform): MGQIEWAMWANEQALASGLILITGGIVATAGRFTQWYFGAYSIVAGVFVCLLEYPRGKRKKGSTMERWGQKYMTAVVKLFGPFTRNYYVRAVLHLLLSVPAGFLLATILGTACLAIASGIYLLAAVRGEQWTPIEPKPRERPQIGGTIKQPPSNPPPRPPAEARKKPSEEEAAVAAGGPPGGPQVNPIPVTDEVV
# Description: For NOX4-dependent oxygen consumption, NOX4 T-Rex HEK cells (50,000 cells/well) were plated onto poly-L-lysine coated XF24 cell culture microplates (Seahorse), treated with 1 μg/mL tetracycline and incubated at 37 °C with 5% CO2 for 24 h. One hour prior to assay, the medium was changed to DMEM without carbonate buffer supplemented with 10 mM HEPES, pH 7.4 and the cells were then incubated for 1 h at 37 °C in normal atmosphere. The baseline oxygen consumption rate (OCR) was recorded 3 times before rotenone (1 μM) and antimycin A (1 μM) were added to eliminate mitochondrial oxygen consumption and 1 OCR cycle was measured. Test compounds were added in the second injection and 4 OCR cycles were recorded. Each OCR cycle was as follows: 3 min mixing; 2 min waiting; 3 min measuring. The basal OCR in tetracycline-induced cells (prior to addition of blockers of mitochondrial respiration) was considered as 100%. Data were analysed using Wave XFe 2.1.0 software. At least three independent experiments were performed for each compound.
# [7] = test system: all NOX isoforms; settings: compound 10 μM, NOX1-5, DUOX1, DUOX2 cell lines
smiles,measurement,setting,value
"O=c1c2ccccc2[se]n1-c1ccccc1 [Ebselen, ebselen]",Inhibition of NOX2-dependent signal in membranes,[1]; compound 50 μM,inhibited
Cc1c2c(=O)n(-c3ccccc3Cl)[nH]c2cc(=O)n1Cc1ccccn1 [GKT136901],Ki NOX1,[2],nanomolar range
same,Ki NOX4,[3],nanomolar range
same,Ki NOX5,[4],nanomolar range
same,Ki NOX2,[5],micromolar range
"c1ccc2c(c1)[I+]c1ccccc1-2 [DPI, diphenylene iodonium chloride]",Inhibitory activity in NOX2 membrane assay,"[1]; WST-1 / CBA, concentration not given",potently inhibited
same,Inhibition of NOX4-dependent (non-mitochondrial) oxygen consumption,[6],inhibited
same,Inhibition of NOX isoforms in cell lines,[7],inhibits all NOX isoforms
